In this experiment the target is Plk1 (Homo sapiens, UniProt P53350). The experiment can be described thus: biochemical.

Structures are written as SMILES. pKi: −log10 of the molar value.

The values below come from patent US8394952B2 (Vertex Pharmaceuticals Incorporated, priority 2006, dated 2013).

The term pKi denotes the Ki on a negative log10 scale, so that one unit is a factor of ten. A lower pKi goes with a large Ki.

Chain of Plk1 (P53350 20-338): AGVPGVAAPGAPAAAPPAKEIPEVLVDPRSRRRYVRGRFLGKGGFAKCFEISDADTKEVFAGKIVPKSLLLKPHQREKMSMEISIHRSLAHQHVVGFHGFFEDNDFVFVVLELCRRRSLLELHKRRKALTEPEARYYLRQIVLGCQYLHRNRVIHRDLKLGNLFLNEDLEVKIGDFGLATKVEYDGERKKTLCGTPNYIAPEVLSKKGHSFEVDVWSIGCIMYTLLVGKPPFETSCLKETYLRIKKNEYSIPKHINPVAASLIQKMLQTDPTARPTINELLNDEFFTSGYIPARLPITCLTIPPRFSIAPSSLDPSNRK

In the case of `CNC(=O)c1ccc(Nc2ncc3c(n2)N(C2CCOCC2)CC(C)(C)C(=O)N3C)c(OC)c1` [Compound I-56, 4-(6,7,8,9-tetrahydro-9-(tetrahydro-2H-pyran-4-yl)-5,7,7-trimethyl-6-oxo-5H-pyrimido[4,5-b][1,4]diazepin-2-ylamino)-3-methoxy-N-methylbenzamide], the pKi is 7.00 to 8.00.

`CNC(=O)c1ccc(Nc2ncc3c(n2)N(CC2CC2)CC(C)(C)C(=O)N3C)c(OC)c1` [Compound I-58, 4-(9-(cyclopropylmethyl)-6,7,8,9-tetrahydro-5,7,7-trimethyl-6-oxo-5H-pyrimido[4,5-b][1,4]diazepin-2-ylamino)-3-methoxy-N-methylbenzamide] gave a pKi of over 8.00.

Take `COc1cc(C(=O)NC2CCN(CC3CC3)CC2)ccc1Nc1ncc2c(n1)N(C1CCCC1)CC(C)(C)C(=O)N2C` [Compound I-59, 4-(9-cyclopentyl-6,7,8,9-tetrahydro-5,7,7-trimethyl-6-oxo-5H-pyrimido[4,5-b][1,4]diazepin-2-ylamino)-N-(1-(cyclopropylmethyl)piperidin-4-yl)-3-methoxybenzamide]: the pKi was over 8.00.

For the compound `CNC(=O)c1ccc(Nc2ncc3c(n2)N(C2CCCC2)CC2(CCC2)C(=O)N3C)c(OC)c1` [Compound I-60, 4-(9′-cyclopentyl-5′-methyl-6′-oxo-5′,6′,8′,9′-tetrahydrospiro[cyclobutane-1,7′-pyrimido[4,5-b][1,4]diazepine]-2′-ylamino)-3-methoxy-N-methylbenzamide], the negative logarithm of the Ki (pKi) was over 8.00.

Turning to `CNC(=O)c1ccc(Nc2ncc3c(n2)N(C2CCCC2)CC2(CC2)C(=O)N3C)c(OC)c1` [Compound I-62, 4-(9′-cyclopentyl-5′-methyl-6′-oxo-5′,6′,8′,9′-tetrahydrospiro[cyclopropane-1,7′-pyrimido[4,5-b][1,4]diazepine]-2′-ylamino)-3-methoxy-N-methylbenzamide], the pKi was over 8.00.

`CN1C(=O)C(C)(C)CN(C2CCCC2)c2nc(Nc3ccc(N4CCOCC4)cc3)ncc21` [Compound I-63, 2-(4-morpholinophenylamino)-9-cyclopentyl-8,9-dihydro-5,7,7-trimethyl-5H-pyrimido[4,5-b][1,4]diazepin-6(7H)-one] showed a pKi of 7.00 to 8.00.

For `COc1cc(C(=O)NC2CCN(C)CC2)ccc1Nc1ncc2c(n1)N(C1CCCC1)CC1(CCC1)C(=O)N2C` [Compound I-64, 4-(9′-cyclopentyl-5′-methyl-6′-oxo-5′,6′,8′,9′-tetrahydrospiro[cyclobutane-1,7′-pyrimido[4,5-b][1,4]diazepine]-2′-ylamino)-3-methoxy-N-(1-methylpiperidin-4-yl)benzamide], the pKi was over 8.00.

Compound `COc1cc(C(=O)NC2CCN(C)CC2)ccc1Nc1ncc2c(n1)N(C1CCCC1)[C@H](C)CC(=O)N2C` [Compound I-65, 4-((R)-9-cyclopentyl-6,7,8,9-tetrahydro-5,8-dimethyl-6-oxo-5H-pyrimido[4,5-b][1,4]diazepin-2-ylamino)-3-methoxy-N-(1-methylpiperidin-4-yl)benzamide] had a pKi of 7.00 to 8.00.

Turning to `CNC(=O)c1ccc(Nc2ncc3c(n2)N([C@@H]2CCN(CC4CC4)C2)CC(C)(C)C(=O)N3C)c(OC)c1` [Compound I-66], the pKi was 7.00 to 8.00.

Regarding `COc1cc(C(=O)NC2CCN(C(C)C)CC2)ccc1Nc1ncc2c(n1)N(C1CCCC1)CC(C)(C)C(=O)N2C` [Compound I-67], the negative-log Ki (pKi) is over 8.00.

For `COc1cc(C(=O)NC2CC(C)(C)N(C)C(C)(C)C2)ccc1Nc1ncc2c(n1)N(C1CCCC1)CC(C)(C)C(=O)N2C` [Compound I-68, 4-(9-cyclopentyl-6,7,8,9-tetrahydro-5,7,7-trimethyl-6-oxo-5H-pyrimido[4,5-b][1,4]diazepin-2-ylamino)-3-methoxy-N-(1,2,2,6,6-pentamethylpiperidin-4-yl)-benzamide], the pKi was over 8.00.

Compound `CCCN1CCC(NC(=O)c2ccc(Nc3ncc4c(n3)N(C3CCCC3)CC(C)(C)C(=O)N4C)c(OC)c2)CC1` [Compound I-69] showed a pKi of over 8.00.

`COc1cc(C(=O)NC2CCN(CC(C)C)CC2)ccc1Nc1ncc2c(n1)N(C1CCCC1)CC(C)(C)C(=O)N2C` [Compound I-70] had a pKi of over 8.00.

For the compound `COc1cc(C(=O)NC2CCN(C(C)(C)C)CC2)ccc1Nc1ncc2c(n1)N(C1CCCC1)CC(C)(C)C(=O)N2C` [Compound I-71, 4-(9-cyclopentyl-6,7,8,9-tetrahydro-5,7,7-trimethyl-6-oxo-5H-pyrimido[4,5-b][1,4]diazepin-2-ylamino)-N-(1-tert-butylpiperidin-4-yl)-3-methoxybenzamide], the pKi is over 8.00.

`CCN1CCC(NC(=O)c2ccc(Nc3ncc4c(n3)N(C3CCCC3)CC(C)(C)C(=O)N4C)c(OC)c2)CC1` [Compound I-72] showed a pKi of over 8.00.

On to `COc1cc(C(=O)N[C@H]2CCN(C(C)C)C2)ccc1Nc1ncc2c(n1)N(C1CCCC1)CC(C)(C)C(=O)N2C` [Compound I-73, 4-(9-cyclopentyl-6,7,8,9-tetrahydro-5,7,7-trimethyl-6-oxo-5H-pyrimido[4,5-b][1,4]diazepin-2-ylamino)-N—((S)-1-isoipropylpyrrolidin-3-yl)-3-methoxybenzamide], for which the pKi was over 8.00.

For `CCOc1cc(C(=O)NC2CCN(C)CC2)ccc1Nc1ncc2c(n1)N(C1CCCC1)CC(C)(C)C(=O)N2C` [Compound I-74, 4-(9-cyclopentyl-6,7,8,9-tetrahydro-5,7,7-trimethyl-6-oxo-5H-pyrimido[4,5-b][1,4]diazepin-2-ylamino)-3-ethoxy-N-(1-methylpiperidin-4-yl)benzamide], the pKi is over 8.00.

In turn, `COc1cc(C(=O)N[C@H]2CCN(CC3CC3)C2)ccc1Nc1ncc2c(n1)N(C1CCCC1)CC(C)(C)C(=O)N2C` [Compound I-75, 4-(9-cyclopentyl-6,7,8,9-tetrahydro-5,7,7-trimethyl-6-oxo-5H-pyrimido[4,5-b][1,4]diazepin-2-ylamino)-N—((S)-1-(cyclopropylmethyl)pyrrolidin-3-yl)-3-methoxybenzamide] gave a pKi of over 8.00.

The compound `COc1cc(C(=O)NC2CCN(C)CC2)ccc1Nc1ncc2c(n1)N(C1CCCC1)CC1(CC1)C(=O)N2C` [Compound I-76, 4-(9′-cyclopentyl-5′-methyl-6′-oxo-5′,6′,8′,9′-tetrahydrospiro[cyclopropane-1,7′-pyrimido[4,5-b][1,4]diazepine]-2′-ylamino)-3-methoxy-N-(1-methylpiperidin-4-yl)benzamide] showed a pKi of over 8.00.

For the compound `COc1cc(C(=O)NC2CCN(CCF)CC2)ccc1Nc1ncc2c(n1)N(C1CCCC1)CC(C)(C)C(=O)N2C` [Compound I-77, 4-(-9-cyclopentyl-6,7,8,9-tetrahydro-5,7,7-trimethyl-6-oxo-5H-pyrimido[4,5-b][1,4]diazepin-2-ylamino)-N-(1-(2-fluoroethyl)piperidin-4-yl)-3-methoxybenzamide], the pKi is over 8.00.

Compound `CN1C(=O)C(C)(C)CN(C2CCCC2)c2nc(Nc3ccc(NC(=O)C(F)(F)F)cc3)ncc21` [Compound I-78, N-(4-(9-cyclopentyl-6,7,8,9-tetrahydro-5,7,7-trimethyl-6-oxo-5H-pyrimido[4,5-b][1,4]diazepin-2-ylamino)phenyl)-2,2,2-trifluoroacetamide] showed a negative-log Ki (pKi) of 7.00 to 8.00.

`CC(=O)N1CCc2cc(Nc3ncc4c(n3)N(C3CCCC3)CC(C)(C)C(=O)N4C)ccc21` [Compound I-79, 2-(1-acetylindolin-5-ylamino)-9-cyclopentyl-8,9-dihydro-5,7,7-trimethyl-5H-pyrimido[4,5-b][1,4]diazepin-6(7H)-one] had a negative-log Ki (pKi) of 7.00 to 8.00.
